Assay results reported in US8563556B2, “Crystalline forms and two solvated forms of 4-amino-5-fluoro-3-[5-(4-methylpiperazin-1-yl)-1H-benzimidazol-2-yl]quinolin-2(1H)-one lactic acid salts” (Novartis AG, priority 2008, dated 2013).
Structures can show the parent of a compound that is named as a salt. Where two headings read alike, the source gives them in different places.

Experiments:
[1] = Solubility of crystalline forms in solvents; format: physicochemical; conditions: for Solubility, Butanol: solvent butanol
[2] = Heat of solution in water at 25° C.; format: physicochemical

Compound | Solubility, Acetone ([1]; solvent acetone, temperature not given) [µg/mL] | Solubility, Butanol ([1]; temperature not given) [µg/mL] | Solubility, Ethanol ([1]; solvent ethanol, temperature not given) [µg/mL] | Solubility, Isopropanol ([1]; solvent isopropanol, temperature not given) [µg/mL] | Solubility, Water ([1]; solvent water, temperature not given) [µg/mL] | Heat of solution in water (endothermic) [2] [kcal/mol] | solubility ([1]; acetone, organic solvent or mixture, solvent acetone, temperature not given, read-out: Solubility, Acetone) [µg/mL] | solubility ([1]; ethanol, organic solvent or mixture, solvent ethanol, temperature not given, read-out: Solubility, Ethanol) [µg/mL] | solubility ([1]; isopropanol, organic solvent or mixture, solvent isopropanol, temperature not given, read-out: Solubility, Isopropanol) [µg/mL] | solubility ([1]; water, solvent water, temperature not given, read-out: Solubility, Water) [µg/mL] | Heat of solution in water (endothermic) ([2]; listed as Form B) [kcal/mol] | solubility ([1]; 0.1 N HCl, 25 °C, simulated gastric fluid, HCl 0.1N, 25° C., read-out: Solubility at 25° C., HCl 0.1N) [µg/mL] | solubility ([1]; ethanol, 25 °C, organic solvent or mixture, ethanol, 25° C., read-out: Solubility at 25° C., ethanol) [µg/mL] | Solubility at 25° C., water ([1]; water, 25° C.) [µg/mL]
CN1CCN(c2ccc3nc(-c4c(N)c5c(F)cccc5[nH]c4=O)[nH]c3c2)CC1 [Anhydrous form A, 4-amino-5-fluoro-3-[5-(4-methylpiperazin-1-yl)-1H-benzimidazol-2-yl]quinolin-2(1H)-one lactic acid salt] | 840 | 950 | 840 | 160 | 107000 | 1.1 |  |  |  |  |  |  |  | 
CN1CCN(c2ccc3nc(-c4c(N)c5c(F)cccc5[nH]c4=O)[nH]c3c2)CC1 [Anhydrous form II, 4-Amino-5-fluoro-3-[5-(4-methylpiperazin-1-yl)-1H-benzimidazol-2-yl]quinolin-2(1H)-one lactate anhydrous form II] |  | 340 |  |  |  |  | 510 | 710 | 80 | 68000 | 2.2 |  |  | 
CN1CCN(c2ccc3nc(-c4c(N)c5c(F)cccc5[nH]c4=O)[nH]c3c2)CC1 [hemi-pentahydrate, 4-Amino-5-fluoro-3-[5-(4-methylpiperazin-1-yl)-1H-benzimidazol-2-yl]quinolin-2(1H)-one lactate hemi-pentahydrate] |  |  |  |  |  | 7.17 |  |  |  |  |  | 55000 | 2000 | 6200
